Results on 15 compounds are retold here after ChEMBL document CHEMBL4414638, “Structure-Activity Relationship of Peptide-Conjugated Chloramphenicol for Inhibiting Escherichia coli” (J Med Chem, 2019).

For data set [1], the system named is Escherichia coli. Nature of the data set: Antibacterial activity against Escherichia coli K-12 assessed as reduction in bacterial growth incubated for 16 hrs. In kind it is functional. The following applies: K-12, 16 h.
Data set [2] relates to Escherichia coli. Nature of the data set: Antibacterial activity against Escherichia coli K-12 assessed as reduction in bacterial growth incubated for 16 hrs in presence of porcine liver esterase. The following applies: K-12, 16 h. In kind it is functional.
Data set [3] concerns Escherichia coli. Description: Antibacterial activity against Escherichia coli K-12 assessed as reduction in bacterial growth incubated for 16 hrs in absence of porcine liver esterase. In kind it is functional. The following applies: K-12, 16 h.
The nature of data set [4]: Drug metabolism in Escherichia coli K-12 lysates assessed as esterase-mediated drug hydrolysis at 200 uM incubated up to 24 hrs by HPLC analysis. In kind it is ADME, subcellular, Lysate. The settings on record: escherichia coli k-12, isolated protein.
Data set [5] is described as follows: Drug metabolism in human HepG2 cells lysates assessed as esterase-mediated drug hydrolysis at 200 uM incubated up to 24 hrs by HPLC analysis. In kind it is ADME, subcellular, Lysate. The settings on record: hepg2, 24 h.
Data set [6] is described as follows: Drug metabolism in Escherichia coli K-12 lysates assessed as esterase-mediated drug hydrolysis by measuring apparent first-order rate constant at 200 uM incubated up to 24 hrs by HPLC analysis. In kind it is ADME, subcellular, Lysate. The settings on record: escherichia coli k-12, isolated protein.
Data set [7] deals with Escherichia coli. Nature of the data set: Antibacterial activity against ydgR gene deficient Escherichia coli assessed as reduction in bacterial growth at 0.1 to 100 uM incubated for 16 hrs. Format: functional, organism-based.
In data set [8] the test system is Escherichia coli. Description: Antibacterial activity against fepA gene deficient Escherichia coli assessed as reduction in bacterial growth at 0.1 to 100 uM incubated for 16 hrs. In kind it is functional, organism-based.
In data set [9] the test system is Escherichia coli. Description: Antibacterial activity against ompF gene deficient Escherichia coli assessed as reduction in bacterial growth at 0.1 to 100 uM incubated for 16 hrs. In kind it is functional, organism-based.
The subject of data set [10] is Escherichia coli. Description: Antibacterial activity against acrA gene deficient Escherichia coli assessed as reduction in bacterial cell viability at 0.1 to 100 uM incubated for 16 hrs relative to control. In kind it is functional.
Data set [11] concerns Escherichia coli. Nature of the data set: Antibacterial activity against bioH gene deficient Escherichia coli assessed as reduction in bacterial growth at 0.1 to 100 uM incubated for 16 hrs. Format: functional, organism-based.
The test system of data set [12] is Escherichia coli. Nature of the data set: Antibacterial activity against yjfP gene deficient Escherichia coli assessed as reduction in bacterial growth at 0.1 to 100 uM incubated for 16 hrs. In kind it is functional, organism-based.
Data set [13] concerns Escherichia coli. Nature of the data set: Antibacterial activity against frsA gene deficient Escherichia coli assessed as reduction in bacterial growth at 0.1 to 100 uM incubated for 16 hrs. Format: functional, organism-based.
Data set [14] has as its system Escherichia coli. Nature of the data set: Antibacterial activity against ybfF gene deficient Escherichia coli assessed as reduction in bacterial growth at 0.1 to 100 uM incubated for 16 hrs. In kind it is functional, organism-based.
The subject of data set [15] is Escherichia coli. Nature of the data set: Antibacterial activity against yfbB gene deficient Escherichia coli assessed as reduction in bacterial growth at 0.1 to 100 uM incubated for 16 hrs. Format: functional, organism-based.
The subject of data set [16] is Escherichia coli. Nature of the data set: Antibacterial activity against ypfH gene deficient Escherichia coli assessed as reduction in bacterial growth at 0.1 to 100 uM incubated for 16 hrs. Format: functional, organism-based.
Data set [17] has as its system Escherichia coli. Description: Antibacterial activity against yeiG gene deficient Escherichia coli assessed as reduction in bacterial growth at 0.1 to 100 uM incubated for 16 hrs. Format: functional, organism-based.
For data set [18], the system named is Escherichia coli. Description: Antibacterial activity against yqiA gene deficient Escherichia coli assessed as reduction in bacterial growth at 0.1 to 100 uM incubated for 16 hrs. In kind it is functional, organism-based.
Data set [19] is described as follows: Drug metabolism in human serum assessed as formation of chloramphenicol at 200 uM at 37 degC after 24 hrs by LC-MS analysis relative to control.
Data set [20] is described as follows: Cytotoxicity in human HS5 cells assessed as reduction in cell viability at 20 uM to 2 mM incubated up to […]rs relative to chloramphenicol. In kind it is cell-based.
Another data set relates to HEK293. Nature of the data set: Cytotoxicity in human HEK293 cells assessed as reduction in cell viability at 20 uM […] relative to chloramphenicol. The settings on record: hek293, 20 µM. In kind it is cell-based.

Converted amounts (≈) assume the structure as drawn. The source made the active and inactive calls. The calls are words filed in the database; no cut-off is given here. Bounds are passed on as bounds.

For the compound `NCCCC[C@H](NC(=O)[C@H](CCCCN)NC(=O)CCC(=O)OC[C@@H](NC(=O)C(Cl)Cl)[C@H](O)c1ccc([N+](=O)[O-])cc1)C(=O)O`, the values for the MIC with Escherichia coli [1], in the data set with Escherichia coli [2] and in the data set with Escherichia coli [3] were 200 µM (≈ 136 µg/mL), 200 µM and 200 µM (≈ 136 µg/mL), respectively. Moreover, the Drug metabolism result in data set [4], in [5] and in data set [19] was “Metabolite_Detected” throughout. The K in [6] was determined as 0.31 h⁻¹. The result in the data set on Escherichia coli [7], in the data set with Escherichia coli [8] and in the data set with Escherichia coli [9] was Active. Further, the Activity in the data set with Escherichia coli [10] is on record as 50%. The result in the data set with Escherichia coli [11], with Escherichia coli [12], in the data set on Escherichia coli [13], with Escherichia coli [14], in the data set on Escherichia coli [15] and in the data set on Escherichia coli [16] was inactive. Also, the outcome with Escherichia coli [17] and in the data set with Escherichia coli [18] was inactive.
In the case of `O=C(O)C[C@H](NC(=O)[C@H](CC(=O)O)NC(=O)CCC(=O)OC[C@@H](NC(=O)C(Cl)Cl)[C@H](O)c1ccc([N+](=O)[O-])cc1)C(=O)O`, the MIC in the data set with Escherichia coli [1] turned out to be 200 µM (≈ 131 µg/mL).
`O=C(O)CC[C@@H](NC(=O)[C@@H](CCC(=O)O)NC(=O)CCC(=O)OC[C@@H](NC(=O)C(Cl)Cl)[C@H](O)c1ccc([N+](=O)[O-])cc1)C(=O)O`: in the data set with Escherichia coli [1], the MIC was above 200 µM.
With `C[C@@H](NC(=O)[C@@H](C)NC(=O)[C@@H](C)NC(=O)CCC(=O)OC[C@@H](NC(=O)C(Cl)Cl)[C@H](O)c1ccc([N+](=O)[O-])cc1)C(=O)O`, the MIC with Escherichia coli [1] was determined as 80 µM (≈ 50.9 µg/mL).
Take `N=C(N)NCCC[C@@H](NC(=O)[C@@H](CCCNC(=N)N)NC(=O)CCC(=O)OC[C@@H](NC(=O)C(Cl)Cl)[C@H](O)c1ccc([N+](=O)[O-])cc1)C(=O)O`: the MIC in the data set on Escherichia coli [1] was found to be 200 µM (≈ 147 µg/mL).
Take `O=C(O)C[C@@H](NC(=O)[C@@H](CC(=O)O)NC(=O)CCC(=O)OC[C@@H](NC(=O)C(Cl)Cl)[C@H](O)c1ccc([N+](=O)[O-])cc1)C(=O)O`: in the data set on Escherichia coli [1], the MIC is above 200 µM.
Consider `O=C(O)CNC(=O)CNC(=O)[C@@H](Cc1ccc2ccccc2c1)NC(=O)[C@@H](Cc1ccccc1)NC(=O)[C@@H](Cc1ccccc1)NC(=O)CCC(=O)OC[C@@H](NC(=O)C(Cl)Cl)[C@H](O)c1ccc([N+](=O)[O-])cc1`, for which the MIC with Escherichia coli [1] was above 200 µM.
On the same count and under the same terms, next, `O=C(CCC(=O)OC[C@@H](NC(=O)C(Cl)Cl)[C@H](O)c1ccc([N+](=O)[O-])cc1)N[C@H](Cc1ccccc1)C(=O)N[C@H](Cc1ccccc1)C(=O)O`: 100 µM (≈ 71.8 µg/mL).
Same read-out and setting: next, `C[C@H](NC(=O)[C@H](C)NC(=O)CCC(=O)OC[C@@H](NC(=O)C(Cl)Cl)[C@H](O)c1ccc([N+](=O)[O-])cc1)C(=O)O`: 100 µM (≈ 56.5 µg/mL).
For `O=C(O)C[C@H](NC(=O)CNC(=O)CCC(=O)OC[C@@H](NC(=O)C(Cl)Cl)[C@H](O)c1ccc([N+](=O)[O-])cc1)C(=O)O`, the MIC in the data set on Escherichia coli [1] is 20 µM (≈ 11.9 µg/mL). Also, the values for the Activity entry (in data set [20]; in the data set with HEK293) were “Non-Toxic” and “Toxic”, respectively.
Regarding `O=C(CCC(=O)OC[C@@H](NC(=O)C(Cl)Cl)[C@H](O)c1ccc([N+](=O)[O-])cc1)NCCOP(=O)(O)O`, the MIC in the data set with Escherichia coli [1] is 100 µM (≈ 54.6 µg/mL).
Regarding `O=C(CCC(=O)OC[C@@H](NC(=O)C(Cl)Cl)[C@H](O)c1ccc([N+](=O)[O-])cc1)NCC(=O)NCC(=O)N[C@H](Cc1ccccc1)C(=O)N[C@H](Cc1ccccc1)C(=O)O`, in the data set on Escherichia coli [1], the MIC amounted to 20 µM (≈ 16.6 µg/mL). Further, the Activity result in [20] is “Non-Toxic”; in the data set with HEK293 it was “Toxic”. The Drug metabolism entry in data set [19] was “Metabolite_Detected”.
For the compound `C[C@@H](NC(=O)CNC(=O)CCC(=O)OC[C@@H](NC(=O)C(Cl)Cl)[C@H](O)c1ccc([N+](=O)[O-])cc1)C(=O)O`, the MIC with Escherichia coli [1] was 20 µM (≈ 11 µg/mL). For the same compound, the results for the Activity entry (in [20]; in the data set on HEK293) were “Non-Toxic” and “Toxic”, respectively.
In the case of `NCCCC[C@@H](NC(=O)[C@@H](CCCCN)NC(=O)[C@@H](Cc1ccccc1)NC(=O)[C@@H](Cc1ccccc1)NC(=O)CCC(=O)OC[C@@H](NC(=O)C(Cl)Cl)[C@H](O)c1ccc([N+](=O)[O-])cc1)C(=O)O`, the MIC in the data set with Escherichia coli [1] stood at 200 µM (≈ 195 µg/mL).
Turning to `COC(=O)CCC(=O)OC[C@@H](NC(=O)C(Cl)Cl)[C@H](O)c1ccc([N+](=O)[O-])cc1`, the MIC in the data set with Escherichia coli [1] is above 200 µM.

What is called MIC is the least concentration at which growth counts as inhibited.
